{"source": "patent US20210145801A1", "about": "“THERAPY FOR PROTEIN MISFOLDING DISEASE” (WREN THERAPEUTICS LIMITED, priority 2018, published 2021)", "key": {"[1]": {"target": "T1, Aβ40 (Homo sapiens, UniProt P05067)", "T1 construct": "similar kinetics experiments were performed on the 40-residue isoform, Aβ40", "T1 sequence (P05067 672-711 limits assumed)": "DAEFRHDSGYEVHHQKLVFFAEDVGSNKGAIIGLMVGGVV", "assay": "Aβ40 aggregation kinetics", "assay_type": "biochemical", "details": "10 μM Aβ40; 1.25-fold excess", "procedure": "For the experiments monitoring Aβ40 aggregation kinetics, the experiments were performed similarly to those described above for Aβ42 at a concentration of 10 μM of Aβ40 in the absence or presence of 1.25-fold excess of Netoglitazone."}, "[2]": {"target": "T2, Aβ42 fibrils (Homo sapiens, UniProt P05067)", "T2 construct": "made in house; host or cells: E. coli BL21 Gold (DE3)", "T2 sequence (P05067 671-713)": "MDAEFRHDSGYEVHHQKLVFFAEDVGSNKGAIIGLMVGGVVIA", "assay": "Dot blot assay with fibril-specific OC antibody", "assay_type": "biochemical", "details": "2 μM Aβ42; 5-fold excess of compound; eight time points", "procedure": "Blotting was performed using Aβ42 fibril-specific antibody (OC, Millipore). During the time course of the aggregation of a 2 μM Aβ42 in the absence and in the presence of 5-fold excess of Netoglitazone, 4 μL Aβ42 aliquots were removed from the mixture at different time points for blotting with OC. Aβ42 aliquots were spotted onto a nitrocellulose membrane (0.2 μm, Whatman) and then the membranes were dried and then blocked with Blocking One (Nacalai tesque) before immuno-detection. OC was used according to the manufacturer's instructions. Alexa Fluor® 488-conjugated secondary antibodies (Life technologies) were subsequently added and fluorescence detection was performed using Typhoon Trio Imager (GE Healthcare)."}, "[3]": {"test_system": "AD worms (GMC101)", "assay": "Automated motility assay (WF-NTP) in AD worms", "assay_type": "in vivo, C. elegans", "procedure": "Standard conditions were used for the propagation of C. elegans (S. Brenner, The genetics of Caenorhabditis elegans. Genetics. 77, 71-94 (1974)). Briefly, the animals were synchronized by hypochlorite bleaching, hatched overnight in M9 buffer (3 g/l KH2PO4, 6 g/l Na2HPO4, 5 g/l NaCl, […]), and subsequently cultured at 20° C. on nematode growth medium (NGM) (CaCl2) 1 mM, MgSO4 1 mM, cholesterol 5 μg/mL, PBS Buffer (250 μM KH2PO4, 67.5 μM KCl, 3.425 mM of NaCl, pH 6), Agar 17 g/L, NaCl 3 g/1, casein 7.5 g/l) plates seeded with the E. coli strain OP50. Saturated cultures of OP50 were grown by inoculating 50 ml of LB medium (tryptone 10 g/l, NaCl 10 g/1, yeast extract 5 g/l) with OP50 and incubating the culture for 16 h at 37° C. NGM plates were seeded with bacteria by adding 350 μl of saturated OP50 to each plate and leaving the plates at 20° C. for 2-3 days. On day 3 after synchronisation, the animals were placed on NGM plates containing 5-fluoro-2′deoxy-uridine (FUDR) (75 μM, unless stated otherwise) to inhibit the growth of offspring.\nGMC101 dvIs100 [unc-54p::A-beta-1-42::unc-54 3′UTR+mtl-2p::GFP]. mtl-2p::GFP produces constitutive expression of GFP in intestinal cells. unc-54p::A-beta-1-42 expresses full-length human Aβ42 peptide in body wall muscle cells that aggregates in vivo. […]\nAll C. elegans populations were cultured at 20° C. and developmentally synchronized from a 4 h egg-lay. At 64-72 h post-egg-lay (time zero), individuals were transferred to FUDR plates, and body movements were assessed over the times indicated. At different ages, the animals were washed off the plates with M9 buffer and spread over an OP-50 unseeded 9 cm plate, after which their movements were recorded at 20 fps using a recently developed microscopic procedure (M. Perni et al., Massively parallel C. elegans tracking provides multi-dimensional fingerprints for phenotypic discovery. J. Neurosci. Methods. 306, 57-67 (2018)) for 1 min. Up to 600 animals were counted in each experiment in duplicate unless stated otherwise. One experiment that is representative of the three or more measured in each series of experiments is shown, and videos were analysed using a custom-made tracking code (M. Perni et al., Massively parallel C. elegans tracking provides multi-dimensional fingerprints for phenotypic discovery. J. Neurosci. Methods. 306, 57-67 (2018)).\nIn order to screen for the effect of therapeutics in the most robust way, a wide field-of-view nematode-tracking platform (WF-NTP) was used, which enables the simultaneous investigation of multiple phenotypic readouts on large worm populations. The WF-NTP monitors up 5000 animals in parallel, and the phenotypical readout includes multiple parallel parameters."}, "[4]": {"target": "T3, Aβ plaques in AD worms (GMC101) (Homo sapiens, UniProt P05067)", "T3 construct": "unc-54p::A-beta-1-42 expresses full-length human Aβ42 peptide in body wall muscle cells; expressed in transfected cells; host or cells: C. elegans strain GMC101 (dvIs100), body wall muscle cells", "T3 sequence (P05067 672-713 limits assumed)": "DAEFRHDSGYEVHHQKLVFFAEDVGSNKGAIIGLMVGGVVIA", "assay": "NIAD-4 staining of plaques load in living AD worms", "assay_type": "in vivo, C. elegans", "procedure": "GMC101 dvIs100 [unc-54p::A-beta-1-42::unc-54 3′UTR+mtl-2p::GFP]. mtl-2p::GFP produces constitutive expression of GFP in intestinal cells. unc-54p::A-beta-1-42 expresses full-length human Aβ42 peptide in body wall muscle cells that aggregates in vivo. Shifting L4 or young adult animals from 20° to 24° C. causes paralysis (G. McColl et al., Utility of an improved model of amyloid-beta (Aβ1-42) toxicity in Caenorhabditis elegans for drug screening for Alzheimer's disease. Mol Neurodegener. 7, 57 (2012));\nBriefly, Netoglitazone stocks (5 mM in 100% DMSO) were used at an appropriate concentration to seed 9-cm NGM plates. Plates were then placed in a laminar flow hood at room temperature (22° C.) for up to 4 hours to dry. […]\nPlaques staining was carried out as previously described (J. Habchi et al. (2016); M. Perni et al., A natural product inhibits the initiation of α-synuclein aggregation & suppresses its toxicity. Proc. Natl. Acad. Sci. U.S.A. 114, E1009-E1017 (2017)). […] Images were captured with a Zeiss Axio Observer D1 fluorescence microscope (Carl Zeiss Microscopy GmbH) with a 20× objective and a 49004 ET-CY3/TRITC filter (Chroma Technology Corp). Fluorescence intensity was calculated using ImageJ software (National Institutes of Health) and then normalized as the corrected total cell fluorescence. […] Statistical significance was determined using t tests."}, "[5]": {"details": "administered at D3, read at D5 of adulthood"}}, "note": "“Also recorded” adds a separate entry of the source.", "data": [{"smiles": "O=C1NC(=O)C(Cc2ccc3cc(OCc4ccccc4F)ccc3c2)S1", "note": "(centres unmarked) [Netoglitazone]", "values": [{"measurement": "Inhibition of Aβ40 aggregation", "setting": "[1]", "value": "able to inhibit Aβ40 aggregation similarly to the 42-residue isoform"}, {"measurement": "Delay of Aβ42 fibril formation in dot-blot assay", "setting": "[2]", "value": "identical within experimental error to that observed in the ThT-based assay"}, {"measurement": "Motility of AD worms after late administration", "setting": "[3]; [5]", "value": "increase of the worm's mobility; also recorded: improves motility"}, {"measurement": "Survival rate of AD worms after late administration", "setting": "[3]; [5]", "value": "increase of the worm's mobility and survival rate; also recorded: improves motility (i) and survival rates"}, {"measurement": "Recovery of dysfunctional phenotype / mobility of AD worms", "setting": "[3]; administered at L4, 0.05-10 μM", "value": "dose dependent and statistically significant recovery in the dysfunctional phenotype"}, {"measurement": "Concentration range of best/maximum protective effect on mobility", "setting": "[3]; administered at L4, D3 of adulthood", "value": "0.5 to 5", "unit": "µM"}, {"measurement": "Plaques load in AD worms (NIAD-4 fluorescence)", "setting": "[4]; 0.5 μM administered at L4, day 6 of adulthood", "value": "significantly decrease the plaques load; also recorded: Decrease in the plaques load in AD worms"}, {"measurement": "Plaques load in AD worms after late administration", "setting": "[4]; administered at D3 of adulthood, read at D6", "value": "significant decrease of the plaques load at D6; also recorded: decreases the plaques load at D6 of adulthood"}]}]}
